Assay results reported in patent US20230192700A1, “PYRAZOLOPYRAZINES ACTING ON CANCERS VIA INHIBITION OF CDK12” (Bayer Aktiengesellschaft, priority 2020, published 2023).
Where two headings read alike, the source gives them in different places.

How the values were obtained:
CDK12/CyclinK = target: T1, CDK12/CyclinK (Homo sapiens, UniProt Q9NYV4); test: CDK12/CycK high ATP kinase assay (TR-FRET); assay type: biochemical; conditions: 2 mM ATP (high ATP); median; read-out: CDK12/CyclinK, 2 mM ATP (high ATP), IC50 - [mol/l] (median)
T1 construct: His-CDK12 (aa Q696-S1082); made in house; host or cells: Hi-5 insect cells (baculovirus co-infection with CycK and yeast CAK1)
Outline: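 Human His-tagged CDK12/CycK (about 0.75 nM) preincubated with compound 15 min, then reacted 60 min at 22 °C with 2 mM ATP and 1 µM biotinylated peptide in HEPES pH 7.5 buffer. Phospho-Ser62 c-Myc epitope detected by TR-FRET (665/620 nm ratio); data normalised to no-inhibitor and no-enzyme controls.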

[1] = tested on: CAL-120 human breast adenocarcinoma cells; test: Proliferation assay CAL-120 (crystal violet); assay type: cell-based; conditions: CAL-120 cells, 4 days, median, read-out: Prolif-CAL-120— IC50 - [mol/l] (median)
Procedure: 4. Proliferation assay: MDA-MB-231, CAL-120
Human tumour cells were originally obtained from the American Type Culture Collection (ATCC), or from the Deutsche Sammlung von Mikroorganismen and Zellkulturen (DSMZ, German Collection of Microorganisms and Cell Cultures). Cultivated tumour cells (CAL-120, human breast adenocarcinoma cells, DSMZ ACC-459; MDA-M B-231, human breast cancer cells, ATCC HTB-26) were plated at a density of 4,000 cells/well in a 96-well multititer plate in 200 microL of their respective growth medium supplemented 10% fetal calf serum. After 24 hours, the cells of one plate (zero-point plate) were stained with crystal violet (see below), while the medium of the other plates was supplemented with the test substances in various concentrations (0 micromol/L, as well as in the range of 0.01-10 micromol/L; the final concentration of the solvent dimethyl sulfoxide was adjusted to 0.1%) using a Tecan HP D300 Digital Dispenser. The cells were incubated for 4 days in the presence of test substances. Cell proliferation was determined by staining the cells with crystal violet: the cells were fixed by adding 20 microL/measuring point of an 11% glutaric aldehyde solution for 15 minutes at room temperature. After three washing cycles of the fixed cells with water, the plates were dried at room temperature. The cells were stained by adding 100 microL/measuring point of a 0.1% crystal violet solution (pH 3.0). After three washing cycles of the stained cells with water, the plates were dried at room temperature. The dye was dissolved by adding 100 microL/measuring point of a 10% acetic acid solution. The extinction was determined by photometry at a wavelength of 595 nm. The change of cell number, in percent, was calculated by normalization of the measured values to the extinction values of the zero-point plate(=0%) and the extinction of the untreated (0 μM) cells(=100%). The IC50 values (inhibitory concentration at 50% of maximal effect) were determined by means of a 4 parameter fit.

T1 sequence (Q9NYV4 with tags, fused parts or gaps): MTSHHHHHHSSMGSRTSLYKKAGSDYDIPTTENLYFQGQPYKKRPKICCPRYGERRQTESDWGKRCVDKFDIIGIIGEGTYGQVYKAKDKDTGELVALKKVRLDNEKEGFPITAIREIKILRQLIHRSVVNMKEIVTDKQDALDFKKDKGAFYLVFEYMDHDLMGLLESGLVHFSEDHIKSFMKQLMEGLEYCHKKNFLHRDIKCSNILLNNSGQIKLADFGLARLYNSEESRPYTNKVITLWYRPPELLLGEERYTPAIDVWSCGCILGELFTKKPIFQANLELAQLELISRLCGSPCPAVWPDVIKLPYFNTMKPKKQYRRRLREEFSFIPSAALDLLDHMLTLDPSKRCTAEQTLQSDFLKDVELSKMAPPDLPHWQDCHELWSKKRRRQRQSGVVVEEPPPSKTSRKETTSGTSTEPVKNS
T1 sequence (O75909 with tags, fused parts or gaps partner limits assumed): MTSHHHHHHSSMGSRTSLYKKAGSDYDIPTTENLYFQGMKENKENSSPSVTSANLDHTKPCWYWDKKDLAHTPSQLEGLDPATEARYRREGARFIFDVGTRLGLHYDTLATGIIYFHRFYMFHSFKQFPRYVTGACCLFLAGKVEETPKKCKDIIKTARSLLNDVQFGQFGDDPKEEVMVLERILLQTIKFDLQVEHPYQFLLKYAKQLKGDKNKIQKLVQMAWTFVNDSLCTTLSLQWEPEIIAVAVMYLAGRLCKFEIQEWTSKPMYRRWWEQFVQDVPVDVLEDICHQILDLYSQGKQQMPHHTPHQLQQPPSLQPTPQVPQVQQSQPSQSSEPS

In the case of `CN1CCCC(n2nc(NCc3nc4ccccc4[nH]3)c3ncc(C4CC4)nc32)CC1` (single isomer, unassigned) [Example 38, (−) or (+)-N-[(1H-benzimidazol-2-yl)methyl]-6-cyclopropyl-1-[(4R*)-1-methylazepan-4-yl]-1H-pyrazolo[3,4-b]pyrazin-3-amine], the IC50 (CDK12/CyclinK) is reported as over 20000 nM and the IC50 [1] is reported as 9.85 nM.
`CN1CCC(n2nc(NCc3nc4cc(C(F)(F)F)ccc4[nH]3)c3ncc(C4CC4)nc32)CC1` [Example 25, 6-cyclopropyl-1-(1-methylpiperidin-4-yl)-N-{[5-(trifluoromethyl)-1H-benzimidazol-2-yl]methyl}-1H-pyrazolo[3,4-b]pyrazin-3-amine] gave an IC50 (CDK12/CyclinK) of 17300 nM and an IC50 ([1]; Homo sapiens, CAL-120, 96 h) of 3.14 nM.
For `Fc1cccc2[nH]c(CNc3nn(C4CCOCC4)c4nc(C5CC5)cnc34)nc12` [Example 23, 6-cyclopropyl-N-[(4-fluoro-1H-benzimidazol-2-yl)methyl]-1-(oxan-4-yl)-1H-pyrazolo[3,4-b]pyrazin-3-amine], the IC50 (CDK12/CyclinK) was 12300 nM and the IC50 ([1]; Homo sapiens, CAL-120, 96 h) was 15.4 nM.
For `c1ccc2[nH]c(CNc3nn(C4CCOC4)c4nc(C5CC5)cnc34)nc2c1` (single isomer, unassigned) [Example 17, (+) or (−)-N-[(1H-benzimidazol-2-yl)methyl]-6-cyclopropyl-1-(oxolan-3-yl)-1H-pyrazolo[3,4-b]pyrazin-3-amine], the IC50 (CDK12/CyclinK) was over 20000 nM and the IC50 ([1]; Homo sapiens, CAL-120, 96 h) was 70.3 nM.
`CC(CCN(C)C)n1nc(NCc2nc3ccccc3[nH]2)c2ncc(C3CC3)nc21` (single isomer, unassigned) [Example 63, (+) or (−)-N-[(1H-benzimidazol-2-yl)methyl]-6-cyclopropyl-1-[4-(dimethylamino)butan-2-yl]-1H-pyrazolo[3,4-b]pyrazin-3-amine] gave an IC50 (CDK12/CyclinK) of over 20000 nM and an IC50 [1] of 878 nM.
`c1ccc2[nH]c(CNc3nn(C4CCOC4)c4nc(C5CC5)cnc34)nc2c1` (single isomer, unassigned) [Example 18, (-) or (+) -N-[(1H-benzimidazol-2-yl)methyl]-6-cyclopropyl-1-[oxolan-3-yl]-1H-pyrazolo[3,4-b]pyrazin-3-amine] was tested, and the IC50 (CDK12/CyclinK) was over 20000 nM and the IC50 [1] was 71.9 nM.
Compound `CN1CCC(n2nc(NCc3nc4ccccc4[nH]3)c3ncc(C4CC4)nc32)CC1` [Example 1, N-[(1H-benzimidazol-2-yl)methyl]-6-cyclopropyl-1-(1-methylpiperidin-4-yl)-1H-pyrazolo[3,4-b]pyrazin-3-amine] has an IC50 (CDK12/CyclinK) of over 20000 nM and an IC50 ([1]; Homo sapiens, CAL-120, 96 h) of 32.8 nM.
`CN1CCC(n2nc(NCc3nc4cc(Cl)c(F)cc4[nH]3)c3ncc(C4CC4)nc32)CC1` [Example 29, N-[(5-chloro-6-fluoro-1H-benzimidazol-2-yl)methyl]-6-cyclopropyl-1-(1-methylpiperidin-4-yl)-1H-pyrazolo[3,4-b]pyrazin-3-amine] was tested, and the IC50 (CDK12/CyclinK) was over 20000 nM and the IC50 ([1]; Homo sapiens, CAL-120, 96 h) was 9.75 nM.
`O[C@H]1C[C@@H](Cn2nc(NCc3nc4ccccc4[nH]3)c3ncc(C4CC4)nc32)C1` [Example 71, cis-3-[(3-{[(1H-benzimidazol-2-yl)methyl]amino}-6-cyclopropyl-1H-pyrazolo[3,4-b]pyrazin-1-yl)methyl]cyclobutan-1-ol] showed an IC50 (CDK12/CyclinK) of over 20000 nM and an IC50 ([1]; Homo sapiens, CAL-120, 96 h) of 52.4 nM.
For `CC(C)n1nc(NCc2nc3ccccc3[nH]2)c2ncc(C3CC3)nc21` [Example 14, N-[(1H-benzimidazol-2-yl)methyl]-6-cyclopropyl-1-(propan-2-yl)-1H-pyrazolo[3,4-b]pyrazin-3-amine], the IC50 (CDK12/CyclinK) was over 20000 nM and the IC50 ([1]; Homo sapiens, CAL-120, 96 h) was 96.4 nM.
For `COCCC(C)n1nc(NCc2nc3ccccc3[nH]2)c2ncc(C3CC3)nc21` (single isomer, unassigned; (-)) [Example 58, (−)-N-[(1H-benzimidazol-2-yl)methyl]-6-cyclopropyl-1-[4-methoxybutan-2-yl]-1H-pyrazolo[3,4-b]pyrazin-3-amine], the IC50 (CDK12/CyclinK) was over 20000 nM and the IC50 [1] was 156 nM.
Work on `CN1CCCC(n2nc(NCc3nc4ccccc4[nH]3)c3ncc(C4CC4)nc32)CC1` (single isomer, unassigned) [Example 37, (+) or (−)-N-[(1H-benzimidazol-2-yl)methyl]-6-cyclopropyl-1-[(4R*)-1-methylazepan-4-yl]-1H-pyrazolo[3,4-b]pyrazin-3-amine] yielded an IC50 (CDK12/CyclinK) of over 20000 nM and an IC50 [1] of 4.14 nM.
With `O[C@H]1C[C@H](Cn2nc(NCc3nc4ccccc4[nH]3)c3ncc(C4CC4)nc32)C1` [Example 70, trans-3-[(3-{[(1H-benzimidazol-2-yl)methyl]amino}-6-cyclopropyl-1H-pyrazolo[3,4-b]pyrazin-1-yl)methyl]cyclobutan-1-ol] the IC50 (CDK12/CyclinK) was over 20000 nM and the IC50 ([1]; Homo sapiens, CAL-120, 96 h) was 71.8 nM.
With `c1ccc2[nH]c(CNc3nn(C4CCOC4)c4nc(C5CC5)cnc34)nc2c1` (racemic) [Example 10, (±)-N-[(1H-benzimidazol-2-yl)methyl]-6-cyclopropyl-1-[oxolan-3-yl]-1H-pyrazolo[3,4-b]pyrazin-3-amine] the IC50 (CDK12/CyclinK) was over 20000 nM and the IC50 ([1]; Homo sapiens, CAL-120, 96 h) was 65.7 nM.
In the case of `CN1CCC(n2nc(NCc3nc4ccccc4[nH]3)c3ncc(C4CC4)nc32)C1` (single isomer, unassigned) [Example 79, (−) or (+)-N-[(1H-benzimidazol-2-yl)methyl]-6-cyclopropyl-1-(1-methylpyrrolidin-3-yl)-1H-pyrazolo[3,4-b]pyrazin-3-amine], the IC50 (CDK12/CyclinK) is reported as over 20000 nM and the IC50 [1] is reported as 71.4 nM.
`CN(C)CCn1nc(NCc2nc3ccccc3[nH]2)c2ncc(C3CC3)nc21` [Example 68, N-[(1H-benzimidazol-2-yl)methyl]-6-cyclopropyl-1-[2-(dimethylamino)ethyl]-1H-pyrazolo[3,4-b]pyrazin-3-amine] showed an IC50 (CDK12/CyclinK) of over 20000 nM and an IC50 ([1]; Homo sapiens, CAL-120, 96 h) of 266 nM.
Work on `OC1(Cn2nc(NCc3nc4ccccc4[nH]3)c3ncc(C4CC4)nc32)CCCC1` [Example 73, 1-[(3-{[(1H-benzimidazol-2-yl)methyl]amino}-6-cyclopropyl-1H-pyrazolo[3,4-b]pyrazin-1-yl)methyl]cyclopentan-1-ol] yielded an IC50 (CDK12/CyclinK) of over 10000 nM and an IC50 ([1]; Homo sapiens, CAL-120, 96 h) of 110 nM.
`FC1(F)CCC(n2nc(NCc3nc4ccccc4[nH]3)c3ncc(C4CC4)nc32)CC1` [Example 36, N-[(1H-benzimidazol-2-yl)methyl]-6-cyclopropyl-1-(4,4-difluorocyclohexyl)-1H-pyrazolo[3,4-b]pyrazin-3-amine] showed an IC50 (CDK12/CyclinK) of over 20000 nM and an IC50 ([1]; Homo sapiens, CAL-120, 96 h) of 48.8 nM.
`CC1CC(n2nc(NCc3nc4ccccc4[nH]3)c3ncc(C4CC4)nc32)CCN1C` (racemic) [Example 41, (±)-cis/trans-N-[(1H-benzimidazol-2-yl)methyl]-6-cyclopropyl-1-(1,2-dimethylpiperidin-4-yl)-1H-pyrazolo[3,4-b]pyrazin-3-amine] gave an IC50 (CDK12/CyclinK) of over 20000 nM and an IC50 ([1]; Homo sapiens, CAL-120, 96 h) of 20.4 nM.
`CN1CCC(n2nc(NCc3nc4cc(SC(F)(F)F)ccc4[nH]3)c3ncc(C4CC4)nc32)CC1` [Example 27, 6-cyclopropyl-1-(1-methylpiperidin-4-yl)-N-({5-[(trifluoromethyl)sulfanyl]-1H-benzimidazol-2-yl}methyl)-1H-pyrazolo[3,4-b]pyrazin-3-amine] was tested, and the IC50 (CDK12/CyclinK) was 2020 nM and the IC50 ([1]; Homo sapiens, CAL-120, 96 h) was 266 nM.
`O[C@H]1C[C@@H](n2nc(NCc3nc4ccccc4[nH]3)c3ncc(C4CC4)nc32)C1` [Example 40, cis-3-(3-{[(1H-benzimidazol-2-yl)methyl]amino}-6-cyclopropyl-1H-pyrazolo[3,4-b]pyrazin-1-yl)cyclobutan-1-ol] was tested, and the IC50 (CDK12/CyclinK) was over 20000 nM and the IC50 ([1]; Homo sapiens, CAL-120, 96 h) was 34.6 nM.
With `OCCCn1nc(NCc2nc3ccccc3[nH]2)c2ncc(C3CC3)nc21` [Example 60, 3-(3-{[(1H-benzimidazol-2-yl)methyl]amino}-6-cyclopropyl-1H-pyrazolo[3,4-b]pyrazin-1-yl)propan-1-ol] the IC50 (CDK12/CyclinK) was over 20000 nM and the IC50 ([1]; Homo sapiens, CAL-120, 96 h) was 128 nM.
